These are literature values, as cited in patent publication US20100323978A1, “Non-aqueous oil delivery system for ophthalmic drugs” (priority 2009, published 2010).

The test system of series [1] is rabbits. Particulars: 10 micro Liters eye drop.
For series [2] the following is noted: warning label.
In series [3] the test system is rabbit eyes. Particulars: aqueous suspension injected into the eyes for three days.
The mark [4] stands for this setting: 0.15 Molar suspended in sesame seed oil.

Structures can show the parent of a compound that is named as a salt. Where two headings read alike, the source gives them in different places.

In the case of `CNC[C@H](O)c1cccc(O)c1` [phenylephrine HCl], the “mydriasis in the rabbit” value in series [1] (setting [4]) is reported as “ineffective”; in series [1] (0.5 Molar suspended in sesame seed oil) it was “slightly effective”.

On to `CN(C)CCOC(=O)C(c1ccccc1)C1(O)CCCC1` (centres unmarked) [Cyclopentolate HCl], for which the stability of powder result in series [2] is reported as “not stable at room temperature”.

Consider `CNC[C@H](O)c1cccc(O)c1` [phenylephrine free base], for which the “mydriasis in the rabbit” value in series [1] (setting [4]) is given as “produced mydriasis”.

For alpha-hydroxy-testosterone, the intra-ocular pressure entry in series [3] is recorded as “decreased”.
